From the NIST ThermoML archive (doi:10.1016/j.fluid.2018.08.012)
“And” between values parts separate entries of the source, which are not always exact repeats. Equal entries are not always repeated.

Assay: mn = molality of the nth substance listed, in mol/kg
Details: Fluid (supercritical or subcritical phases), Vibrating tube method, m1 = 0.2392

O=S=O [sulfur dioxide] + O=C=O
Details	mass density
324.07 K, 2523.7 kPa	45.99 kg/m3
324.07 K, 2524.8 kPa	46.06 kg/m3
324.07 K, 5037.9 kPa	106.08 kg/m3
324.07 K, 5047.5 kPa	106.41 kg/m3
324.07 K, 7549.5 kPa	197.2 kg/m3
324.07 K, 7550.3 kPa	197.25 kg/m3
324.07 K, 10068 kPa	396.72 kg/m3
324.07 K, 10080 kPa	398.55 kg/m3
324.07 K, 12568 kPa	620.49 kg/m3 and 620.47 kg/m3
324.07 K, 15086 kPa	705.24 kg/m3
324.07 K, 15087 kPa	705.32 kg/m3
324.07 K, 17615 kPa	754.18 kg/m3
324.07 K, 20140 kPa	788.89 kg/m3 and 788.93 kg/m3
324.07 K, 22662 kPa	816.06 kg/m3
324.07 K, 22664 kPa	816.05 kg/m3
324.07 K, 25179 kPa	838.47 kg/m3
324.07 K, 25185 kPa	838.49 kg/m3
324.07 K, 27695 kPa	857.63 kg/m3
324.07 K, 27705 kPa	857.68 kg/m3
324.07 K, 30187 kPa	874.31 kg/m3
324.07 K, 30220 kPa	874.51 kg/m3
324.07 K, 32689 kPa	889.28 kg/m3
324.07 K, 32729 kPa	889.51 kg/m3
324.07 K, 35178 kPa	902.77 kg/m3
324.07 K, 35212 kPa	902.97 kg/m3
349.39 K, 2532.7 kPa	41.96 kg/m3
349.39 K, 2537.9 kPa	42.01 kg/m3
349.39 K, 5043.8 kPa	91.74 kg/m3
349.39 K, 5046.4 kPa	91.91 kg/m3
349.39 K, 7518.6 kPa	153.18 kg/m3
349.39 K, 7555.2 kPa	154.4 kg/m3
349.39 K, 10069 kPa	236.57 kg/m3
349.39 K, 10075 kPa	236.62 kg/m3
349.39 K, 12580 kPa	346.19 kg/m3
349.39 K, 12586 kPa	346.44 kg/m3
349.39 K, 15085 kPa	467.39 kg/m3
349.39 K, 15089 kPa	467.53 kg/m3
349.39 K, 17619 kPa	564.01 kg/m3
349.39 K, 17622 kPa	564.12 kg/m3
349.39 K, 20144 kPa	630.6 kg/m3
349.39 K, 20146 kPa	630.67 kg/m3
349.39 K, 22669 kPa	678.62 kg/m3
349.39 K, 22671 kPa	678.72 kg/m3
349.39 K, 25189 kPa	715.52 kg/m3
349.39 K, 25190 kPa	715.6 kg/m3
349.39 K, 27706 kPa	745.39 kg/m3
349.39 K, 27707 kPa	745.51 kg/m3
349.39 K, 30211 kPa	770.4 kg/m3
349.39 K, 30216 kPa	770.37 kg/m3
349.39 K, 32707 kPa	791.84 kg/m3
349.39 K, 32708 kPa	791.77 kg/m3
349.39 K, 35200 kPa	810.62 kg/m3
349.39 K, 35202 kPa	810.71 kg/m3
375.06 K, 2549.7 kPa	38.37 kg/m3
375.06 K, 2555.7 kPa	38.44 kg/m3
375.06 K, 5060.6 kPa	81.6 kg/m3
375.06 K, 5068.6 kPa	81.91 kg/m3
375.06 K, 7564.3 kPa	131.73 kg/m3
375.06 K, 7579.7 kPa	132.31 kg/m3
375.06 K, 10049 kPa	189.67 kg/m3
375.06 K, 10080 kPa	190.27 kg/m3
375.06 K, 12595 kPa	258.2 kg/m3
375.06 K, 12612 kPa	259 kg/m3
375.06 K, 15080 kPa	333.08 kg/m3
375.06 K, 15093 kPa	333.81 kg/m3
375.06 K, 17617 kPa	411.4 kg/m3
375.06 K, 17623 kPa	411.26 kg/m3
375.06 K, 20142 kPa	482.1 kg/m3
375.06 K, 20148 kPa	481.92 kg/m3
375.06 K, 22667 kPa	541.64 kg/m3
375.06 K, 22672 kPa	541.46 kg/m3
375.06 K, 25185 kPa	590.31 kg/m3
375.06 K, 25191 kPa	590.18 kg/m3
375.06 K, 27702 kPa	630.33 kg/m3
375.06 K, 27708 kPa	630.2 kg/m3
375.06 K, 30214 kPa	663.73 kg/m3
375.06 K, 30222 kPa	663.67 kg/m3
375.06 K, 32714 kPa	692.09 kg/m3
375.06 K, 32726 kPa	692.34 kg/m3
375.06 K, 35206 kPa	716.75 kg/m3
375.06 K, 35223 kPa	717.02 kg/m3
399.99 K, 2560.5 kPa	35.13 kg/m3
399.99 K, 2564.5 kPa	35.68 kg/m3
399.99 K, 5074.4 kPa	74.46 kg/m3
399.99 K, 5079.5 kPa	74.06 kg/m3
399.99 K, 7580.3 kPa	116.91 kg/m3
399.99 K, 7584.9 kPa	117.53 kg/m3
399.99 K, 10090 kPa	164.56 kg/m3
399.99 K, 10112 kPa	164.41 kg/m3
399.99 K, 12594 kPa	215.96 kg/m3
399.99 K, 12608 kPa	216.99 kg/m3
399.99 K, 15081 kPa	271.09 kg/m3
399.99 K, 15090 kPa	272.1 kg/m3
399.99 K, 17615 kPa	329.58 kg/m3
399.99 K, 17617 kPa	330.16 kg/m3
399.99 K, 20141 kPa	387.34 kg/m3 and 386.76 kg/m3
399.99 K, 22663 kPa	440.42 kg/m3
399.99 K, 22665 kPa	441.02 kg/m3
399.99 K, 25183 kPa	488.79 kg/m3
399.99 K, 25184 kPa	489.39 kg/m3
399.99 K, 27700 kPa	532.13 kg/m3
399.99 K, 27701 kPa	531.53 kg/m3
399.99 K, 30211 kPa	569.48 kg/m3
399.99 K, 30212 kPa	568.87 kg/m3
399.99 K, 32703 kPa	601.95 kg/m3
399.99 K, 32723 kPa	601.61 kg/m3
399.99 K, 35199 kPa	630.66 kg/m3
399.99 K, 35210 kPa	630.23 kg/m3
